We go through seven compounds from PubChem BioAssay (NCI).

Several values for one entry are separate records, joined by “and”; a condition that tells them apart may be missing. Equal entries are not always repeated.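 Dose response: 5 concentrations. Exposure: 48 h. Format: 96-well plates. Endpoint: linear interpolation; highest concentration if not reached. GI50 = concentration required for 50% inhibition of growth. TGI is the concentration that stops growth completely.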 A value given as a limit tells only on which side of the number the result lay.

Holding throughout (assay): NCI anticancer screen, dose series, 48 h
The subject of assay [1] is 786-0 renal.
The subject of assay [2] is HCT-116 colon.
Assay [3] relates to HL-60(TB) leukemia.
The subject of assay [4] is HOP-62 NSCLC.
The subject of assay [5] is IGROV1 ovarian.
Assay [6] concerns K-562 leukemia.
Assay [7] deals with M14 melanoma.
The test system of assay [8] is NCI-H522 lung.
Assay [9] relates to OVCAR-3 ovarian.
In assay [10] the test system is SNB-19 CNS.

Turning to `Cc1cc2nc(-c3ccc(O)c(O)c3)n(Cc3ccc(O)c(O)c3)c2cc1C`, the GI50 in assay [1] was 34 µM; in [2] it was 19.6 µM; in assay [3], 9.33 µM; in assay [4] it was 45.6 µM; in assay [5] it was 18.1 µM; in assay [6], 7.43 µM. Further, the GI50 in assay [7] is 39.2 µM; in [8], 6.71 µM; in assay [9] it was 14.6 µM; in [10] it was 65 µM. In addition, the TGI was more than 100 µM in assay [1]; 35.1 µM in assay [2]; 47.4 µM in assay [3]; more than 100 µM in [4]; more than 100 µM in [5]; more than 100 µM in [6]. Further, the TGI in assay [7] is more than 100 µM; in assay [8], 23.9 µM; in [9], 77 µM; in assay [10], more than 100 µM.

For `COC(=O)Nc1nc2ccc(C(=O)c3cccs3)cc2[nH]1`, the GI50 was 0.261 µM in [1]; 0.0732 µM in assay [2]; 0.0897 µM in assay [3]; 1.11 µM in [4]; 0.594 µM in [5]; 0.0797 µM in assay [7]. Besides, the GI50 in assay [8] was 0.0139 µM and 0.107 µM; in assay [9] it was 0.0192 µM and 0.0664 µM; in [10] it was 0.359 µM. Moreover, the TGI in assay [1] is 29.8 µM and > 100 µM; in assay [2], 16.5 µM and 14.2 µM; in [3], 0.0753 µM and 0.415 µM; in assay [4], 32.8 µM and > 100 µM; in assay [5], 36.5 µM and > 100 µM; in assay [6], 42.5 µM. Besides, the TGI was 2.79 µM and 0.432 µM in assay [7]; 0.0606 µM in assay [8]; 42.5 µM and > 100 µM in assay [10].

As to `Cc1nc2sc(C(=O)Nc3ccccc3)c(N)c2cc1C(=O)c1ccccc1`, the GI50 is 1.81 µM in [1]; 1.59 µM in assay [2]; 0.0138 µM in [3]; 3.33 µM in assay [4]; 4.11 µM in assay [5]; 1.69 µM in assay [6]. Also, the GI50 in assay [7] was 1.56 µM; in assay [8], 1.54 µM; in [9] it was 1.91 µM; in [10], 2 µM. The TGI in [1] was more than 50 µM; in assay [2], more than 50 µM; in assay [3], 38.1 µM; in [4], more than 50 µM; in [5], more than 50 µM; in assay [6], more than 50 µM. In addition, the TGI in assay [7] is more than 50 µM; in assay [8] it was 12.7 µM; in assay [9], 6.19 µM; in assay [10] it was more than 50 µM.

`Cc1nc(-n2nc(-c3ccccc3)cc2-c2ccccc2)sc1C(=O)CC(=O)C(=O)Nc1ccc(O)cc1`: the TGI in [1], in [2], in assay [3], in assay [4], in [5] and in [6] was more than 100 µM in each case. Besides, the TGI in assay [7], in [8], in assay [9] and in assay [10] was more than 100 µM throughout.

On to `C[C@H]1CCC2C(OC(=O)[C@@H]2CN(C)C)[C@]2(C)C(=O)C=CC12O` (stereo partly drawn), for which the TGI in assay [1] was 11.2 µM; in assay [2], 12.5 µM; in assay [3] it was 7.18 µM; in assay [4] it was 45.6 µM; in assay [5], 42.5 µM; in assay [6], more than 55 µM. Besides, the TGI in assay [7] is 14.8 µM; in assay [8] it was 3.13 µM; in assay [9] it was 15 µM; in [10], more than 57.5 µM.

As for `COc1ccc(F)cc1-c1ccnc2[nH]c(C3=CCN(C4CCC(CC(=O)O)CC4)CC3)cc12` (stereo not drawn), the GI50 in [1] was 0.219 µM; in [2], 0.163 µM; in assay [3], 0.0739 µM; in assay [4], 0.362 µM; in assay [5], 0.168 µM; in [6] it was 0.316 µM. Besides, the GI50 in assay [7] was 0.275 µM; in assay [8], 0.159 µM; in assay [9], 0.107 µM; in assay [10], 0.152 µM. Besides, the TGI was 37.3 µM in assay [1]; more than 100 µM in assay [2]; 1.45 µM in assay [3]; more than 100 µM in assay [4]; more than 100 µM in assay [5]; more than 100 µM in [6]. In addition, the TGI is 1.93 µM in assay [7], 0.714 µM in assay [8], more than 100 µM in [9] and more than 100 µM in assay [10].

Consider `COc1cc2c(=O)n(CC3CCCCC3)c3c4cc[nH]c4ncc3c2cc1OC`, for which the GI50 in [1] is 1.31 µM; in assay [2] it was 1.01 µM; in [3] it was 12.8 µM; in assay [4], 2.54 µM; in [5] it was 0.891 µM; in assay [6], 0.187 µM. For the same compound, the GI50 was 4.3 µM in assay [7], 1.34 µM in assay [8], 6.66 µM in assay [9] and 5.16 µM in [10]. In addition, the TGI in assay [1] was 9.25 µM; in assay [2] it was 12.3 µM; in assay [3], more than 50 µM; in [4] it was 11.2 µM; in assay [5], 13.8 µM; in assay [6], 15.8 µM. Further, the TGI is more than 50 µM in assay [7], 18.3 µM in assay [8], 18 µM in [9] and 19.5 µM in assay [10].
